Assay results from ChEMBL document CHEMBL4665869, “New thiazolopyrimidine as anticancer agents: Synthesis, biological evaluation, DNA binding, molecular modeling and ADMET study” (Bioorg Med Chem Lett, 2020).
≈ marks a conversion by molar mass, not a printed value.

What was measured:
U-251 = assay: Growth inhibition of human U-251 cells at 10 uM relative to control; format: functional; conditions: read-out: GI
SNB-75 = assay: Growth inhibition of human SNB-75 cells at 10 uM relative to control; format: functional; conditions: read-out: GI
ACHN = assay: Growth inhibition of human ACHN cells at 10 uM relative to control; format: functional; conditions: read-out: GI
TK-10 = assay: Growth inhibition of human TK-10 cells at 10 uM relative to control; format: functional; conditions: read-out: GI
UO-31 = assay: Growth inhibition of human UO-31 cells at 10 uM relative to control; format: functional; conditions: read-out: GI
A549 = assay: Growth inhibition of human A549 cells at 10 uM relative to control; format: functional; conditions: read-out: GI
COLO 205 = assay: Growth inhibition of human COLO 205 cells at 10 uM relative to control; format: functional; conditions: read-out: GI
SK-OV-3 = assay: Growth inhibition of human SK-OV-3 cells at 10 uM relative to control; format: functional; conditions: read-out: GI
SR = assay: Growth inhibition of human SR cells at 10 uM relative to control; format: functional; conditions: read-out: GI
SF-539 = assay: Growth inhibition of human SF-539 cells at 10 uM relative to control; format: functional; conditions: read-out: GI
MDA-MB-435 = assay: Growth inhibition of human MDA-MB-435 cells at 10 uM relative to control; format: functional; conditions: read-out: GI
OVCAR-8 = assay: Growth inhibition of human OVCAR-8 cells at 10 uM relative to control; format: functional; conditions: read-out: GI
UACC-257 = assay: Growth inhibition of human UACC-257 cells at 10 uM relative to control; format: functional; conditions: read-out: GI
SK-MEL-2 = assay: Growth inhibition of human SK-MEL-2 cells at 10 uM relative to control; format: functional; conditions: read-out: GI
SF-268 = assay: Growth inhibition of human SF-268 cells at 10 uM relative to control; format: functional; conditions: read-out: GI
A498 = assay: Growth inhibition of human A498 cells at 10 uM relative to control; format: functional; conditions: read-out: GI
MOLT-4 = assay: Growth inhibition of human MOLT-4 cells at 10 uM relative to control; format: functional; conditions: read-out: GI
OVCAR-5 = assay: Growth inhibition of human OVCAR-5 cells at 10 uM relative to control; format: functional; conditions: read-out: GI
NCI-H226 = assay: Growth inhibition of human NCI-H226 cells at 10 uM relative to control; format: functional; conditions: read-out: GI
RPMI-8226 = assay: Growth inhibition of human RPMI-8226 cells at 10 uM relative to control; format: functional; conditions: read-out: GI
NCI-H23 = assay: Growth inhibition of human NCI-H23 cells at 10 uM relative to control; format: functional; conditions: read-out: GI
SNB-19 = assay: Growth inhibition of human SNB-19 cells at 10 uM relative to control; format: functional; conditions: read-out: GI
KM12 = assay: Growth inhibition of human KM12 cells at 10 uM relative to control; format: functional; conditions: read-out: GI
HCT-15 = assay: Growth inhibition of human HCT-15 cells at 10 uM relative to control; format: functional; conditions: read-out: GI
HL-60(TB) = assay: Growth inhibition of human HL-60(TB) cells at 10 uM relative to control; format: functional; conditions: read-out: GI
OVCAR-4 = assay: Growth inhibition of human OVCAR-4 cells at 10 uM relative to control; format: functional; conditions: read-out: GI
DNA = assay: Displacement of methyl green from DNA (unknown origin) assessed as DNA intercalation after 24 hrs by colorimetric assay; format: nucleic-acid assay
HCT-116 = assay: Growth inhibition of human HCT-116 cells at 10 uM relative to control; format: functional; conditions: read-out: GI
PC-3 = assay: Growth inhibition of human PC-3 cells at 10 uM relative to control; format: functional; conditions: read-out: GI
SF-295 = assay: Growth inhibition of human SF-295 cells at 10 uM relative to control; format: functional; conditions: read-out: GI
Hs-578T = assay: Growth inhibition of human Hs-578T cells at 10 uM relative to control; format: functional; conditions: read-out: GI
NCI-H322M = assay: Growth inhibition of human NCI-H322M cells at 10 uM relative to control; format: functional; conditions: read-out: GI
HT-29 = assay: Growth inhibition of human HT-29 cells at 10 uM relative to control; format: functional; conditions: read-out: GI
Malme-3M = assay: Growth inhibition of human Malme-3M cells at 10 uM relative to control; format: functional; conditions: read-out: GI
DU-145 = assay: Growth inhibition of human DU-145 cells at 10 uM relative to control; format: functional; conditions: read-out: GI
MCF7 = assay: Growth inhibition of human MCF7 cells at 10 uM relative to control; format: functional; conditions: read-out: GI
RXF 393 = assay: Growth inhibition of human RXF 393 cells at 10 uM relative to control; format: functional; conditions: read-out: GI
SN12C = assay: Growth inhibition of human SN12C cells at 10 uM relative to control; format: functional; conditions: read-out: GI
BT-549 = assay: Growth inhibition of human BT-549 cells at 10 uM relative to control; format: functional; conditions: read-out: GI
HOP-92 = assay: Growth inhibition of human HOP-92 cells at 10 uM relative to control; format: functional; conditions: read-out: GI
NCI-H522 = assay: Growth inhibition of human NCI-H522 cells at 10 uM relative to control; format: functional; conditions: read-out: GI
HOP-62 = assay: Growth inhibition of human HOP-62 cells at 10 uM relative to control; format: functional; conditions: read-out: GI
IGROV-1 = assay: Growth inhibition of human IGROV-1 cells at 10 uM relative to control; format: functional; conditions: read-out: GI
MDA-MB-468 = assay: Growth inhibition of human MDA-MB-468 cells at 10 uM relative to control; format: functional; conditions: read-out: GI
CCRF-CEM = assay: Growth inhibition of human CCRF-CEM cells at 10 uM relative to control; format: functional; conditions: read-out: GI
CAKI-1 = assay: Growth inhibition of human CAKI-1 cells at 10 uM relative to control; format: functional; conditions: read-out: GI
LOX IMVI = assay: Growth inhibition of human LOX IMVI cells at 10 uM relative to control; format: functional; conditions: read-out: GI
NCI/ADR-RES = assay: Growth inhibition of human NCI/ADR-RES cells at 10 uM relative to control; format: functional; conditions: read-out: GI
NCI-H460 = assay: Growth inhibition of human NCI-H460 cells at 10 uM relative to control; format: functional; conditions: read-out: GI
M14 = assay: Growth inhibition of human M14 cells at 10 uM relative to control; format: functional; conditions: read-out: GI
T47D = assay: Growth inhibition of human T47D cells at 10 uM relative to control; format: functional; conditions: read-out: GI
SK-MEL-5 = assay: Growth inhibition of human SK-MEL-5 cells at 10 uM relative to control; format: functional; conditions: read-out: GI
UACC-62 = assay: Growth inhibition of human UACC-62 cells at 10 uM relative to control; format: functional; conditions: read-out: GI
HCC 2998 = assay: Growth inhibition of human HCC 2998 cells at 10 uM relative to control; format: functional; conditions: read-out: GI
SW-620 = assay: Growth inhibition of human SW-620 cells at 10 uM relative to control; format: functional; conditions: read-out: GI
786-0 = assay: Growth inhibition of human 786-0 cells at 10 uM relative to control; format: functional; conditions: read-out: GI
MDA-MB-231 = assay: Growth inhibition of human MDA-MB-231 cells at 10 uM relative to control; format: functional; conditions: read-out: GI
SK-MEL-28 = assay: Growth inhibition of human SK-MEL-28 cells at 10 uM relative to control; format: functional; conditions: read-out: GI
K562 = assay: Growth inhibition of human K562 cells at 10 uM relative to control; format: functional; conditions: read-out: GI

## C1=CN2C(=NC(/C=C/c3cccs3)=CC2c2cccs2)S1 (centres undefined)
U-251
  inhibition of growth at 10 µM: < 10%
SNB-75
  inhibition of growth at 10 µM: 12.3%
ACHN
  inhibition of growth at 10 µM: < 10%
TK-10
  inhibition of growth at 10 µM: < 10%
UO-31
  inhibition of growth at 10 µM: < 10%
A549
  inhibition of growth at 10 µM: < 10%
COLO 205
  inhibition of growth at 10 µM: < 10%
SK-OV-3
  inhibition of growth at 10 µM: < 10%
SR
  inhibition of growth at 10 µM: < 10%
SF-539
  inhibition of growth at 10 µM: < 10%
MDA-MB-435
  inhibition of growth at 10 µM: < 10%
OVCAR-8
  inhibition of growth at 10 µM: < 10%
UACC-257
  inhibition of growth at 10 µM: < 10%
SK-MEL-2
  inhibition of growth at 10 µM: < 10%
SF-268
  inhibition of growth at 10 µM: < 10%
A498
  inhibition of growth at 10 µM: < 10%
MOLT-4
  inhibition of growth at 10 µM: < 10%
OVCAR-5
  inhibition of growth at 10 µM: < 10%
NCI-H226
  inhibition of growth at 10 µM: < 10%
RPMI-8226
  inhibition of growth at 10 µM: < 10%
NCI-H23
  inhibition of growth at 10 µM: < 10%
SNB-19
  inhibition of growth at 10 µM: < 10%
KM12
  inhibition of growth at 10 µM: < 10%
HCT-15
  inhibition of growth at 10 µM: < 10%
HL-60(TB)
  inhibition of growth at 10 µM: < 10%
OVCAR-4
  inhibition of growth at 10 µM: < 10%
DNA
  IC50: 33.67 mg/L (≈ 103 µM)
HCT-116
  inhibition of growth at 10 µM: < 10%
PC-3
  inhibition of growth at 10 µM: < 10%
SF-295
  inhibition of growth at 10 µM: < 10%
Hs-578T
  inhibition of growth at 10 µM: < 10%
NCI-H322M
  inhibition of growth at 10 µM: < 10%
HT-29
  inhibition of growth at 10 µM: < 10%
Malme-3M
  inhibition of growth at 10 µM: < 10%
DU-145
  inhibition of growth at 10 µM: < 10%
MCF7
  inhibition of growth at 10 µM: < 10%
RXF 393
  inhibition of growth at 10 µM: < 10%
SN12C
  inhibition of growth at 10 µM: < 10%
BT-549
  inhibition of growth at 10 µM: < 10%
HOP-92
  inhibition of growth at 10 µM: < 10%
NCI-H522
  inhibition of growth at 10 µM: < 10%
HOP-62
  inhibition of growth at 10 µM: < 10%
IGROV-1
  inhibition of growth at 10 µM: < 10%
MDA-MB-468
  inhibition of growth at 10 µM: < 10%
CCRF-CEM
  inhibition of growth at 10 µM: < 10%
CAKI-1
  inhibition of growth at 10 µM: < 10%
LOX IMVI
  inhibition of growth at 10 µM: < 10%
NCI/ADR-RES
  inhibition of growth at 10 µM: < 10%
NCI-H460
  inhibition of growth at 10 µM: < 10%
M14
  inhibition of growth at 10 µM: < 10%
T47D
  inhibition of growth at 10 µM: < 10%
SK-MEL-5
  inhibition of growth at 10 µM: < 10%
UACC-62
  inhibition of growth at 10 µM: < 10%
HCC 2998
  inhibition of growth at 10 µM: < 10%
SW-620
  inhibition of growth at 10 µM: < 10%
786-0
  inhibition of growth at 10 µM: < 10%
MDA-MB-231
  inhibition of growth at 10 µM: < 10%
SK-MEL-28
  inhibition of growth at 10 µM: < 10%
K562
  inhibition of growth at 10 µM: < 10%
